Assay results from PMC7044277 (Nature Communications, 2020).
“And” between values parts separate entries of the source, which are not always exact repeats. Equal values may be shown once.

Key:
Assay type in all cases: cell-based
320 non-olfactory GPCRs [1] = molecular target: T1, 320 non-olfactory GPCRs (Homo sapiens, UniProt P51582); conditions: receptor P2RY4; replicate values, Fig_4g
T1 construct: expressed in transfected cells; host or cells: HTLA cells

320 non-olfactory GPCRs [2] = molecular target: T2, 320 non-olfactory GPCRs (Homo sapiens, UniProt Q9NS75)
T2 construct: expressed in transfected cells; host or cells: HTLA cells
T2 sequence (Q9NS75 whole entry): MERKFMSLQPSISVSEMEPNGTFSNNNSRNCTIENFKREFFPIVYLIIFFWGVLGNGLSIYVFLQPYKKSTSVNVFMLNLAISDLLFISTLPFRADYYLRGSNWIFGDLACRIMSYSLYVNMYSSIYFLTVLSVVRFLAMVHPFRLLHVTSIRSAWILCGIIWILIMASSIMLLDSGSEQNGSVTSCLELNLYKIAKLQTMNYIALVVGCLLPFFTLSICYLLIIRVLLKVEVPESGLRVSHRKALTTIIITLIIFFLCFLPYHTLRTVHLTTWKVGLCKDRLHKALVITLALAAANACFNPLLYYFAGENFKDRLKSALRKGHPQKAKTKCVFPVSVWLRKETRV

320 non-olfactory GPCRs [3] = molecular target: T3, 320 non-olfactory GPCRs (Homo sapiens, UniProt P08588)
T3 construct: expressed in transfected cells; host or cells: HTLA cells
T3 sequence (P08588 whole entry): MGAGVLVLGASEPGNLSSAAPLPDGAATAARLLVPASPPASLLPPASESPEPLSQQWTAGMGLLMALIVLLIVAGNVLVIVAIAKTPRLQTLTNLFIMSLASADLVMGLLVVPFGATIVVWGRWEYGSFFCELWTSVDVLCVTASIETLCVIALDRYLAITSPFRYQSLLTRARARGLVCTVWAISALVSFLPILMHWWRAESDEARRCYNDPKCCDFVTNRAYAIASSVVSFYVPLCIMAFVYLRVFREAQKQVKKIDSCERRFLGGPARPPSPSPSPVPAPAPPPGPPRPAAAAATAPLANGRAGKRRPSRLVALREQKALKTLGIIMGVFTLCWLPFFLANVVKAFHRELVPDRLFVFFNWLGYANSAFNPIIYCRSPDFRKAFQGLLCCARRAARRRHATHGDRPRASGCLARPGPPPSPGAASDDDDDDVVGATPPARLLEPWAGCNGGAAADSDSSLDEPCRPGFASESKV

320 non-olfactory GPCRs [4] = molecular target: 320 non-olfactory GPCRs (Homo sapiens, UniProt P11229)
320 non-olfactory GPCRs (Homo sapiens, UniProt P11229), sequence (P11229 whole entry): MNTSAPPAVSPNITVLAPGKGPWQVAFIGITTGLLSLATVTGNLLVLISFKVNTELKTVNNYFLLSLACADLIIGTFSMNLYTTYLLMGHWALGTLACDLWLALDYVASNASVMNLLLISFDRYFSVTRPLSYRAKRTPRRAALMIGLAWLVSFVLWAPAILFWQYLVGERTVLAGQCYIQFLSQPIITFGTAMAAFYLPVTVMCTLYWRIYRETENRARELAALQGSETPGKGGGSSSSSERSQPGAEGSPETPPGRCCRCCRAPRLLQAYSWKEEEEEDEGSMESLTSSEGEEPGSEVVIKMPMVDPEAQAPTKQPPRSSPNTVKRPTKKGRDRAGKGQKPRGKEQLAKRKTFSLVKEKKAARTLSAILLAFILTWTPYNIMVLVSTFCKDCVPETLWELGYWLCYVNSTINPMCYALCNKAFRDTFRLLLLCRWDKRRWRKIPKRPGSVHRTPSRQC
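For Fold of Basal in this document: compound tested at 1 µM final concentration.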
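For GPCRome agonism screen response in this document: fold over basal response of each receptor without drug.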

T1 sequence (P51582 whole entry): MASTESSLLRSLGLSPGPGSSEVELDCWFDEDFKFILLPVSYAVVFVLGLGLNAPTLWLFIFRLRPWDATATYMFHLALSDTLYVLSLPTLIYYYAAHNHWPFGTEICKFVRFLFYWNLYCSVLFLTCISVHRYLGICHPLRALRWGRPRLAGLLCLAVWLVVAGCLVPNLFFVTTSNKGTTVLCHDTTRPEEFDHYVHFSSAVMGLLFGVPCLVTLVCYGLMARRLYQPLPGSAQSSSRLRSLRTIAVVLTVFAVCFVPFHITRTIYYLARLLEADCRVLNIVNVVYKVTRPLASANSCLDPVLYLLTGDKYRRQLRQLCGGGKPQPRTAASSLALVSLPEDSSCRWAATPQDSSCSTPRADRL

In the case of `CCOc1cccc2cc(C(C)NCC3(O)CCCCC3)oc12` (stereo not shown) [O4LE6], the “GPCRome agonism screen response” value (320 non-olfactory GPCRs [1]) is reported as 0.9286 and 1.003 and 1.314 and 2.009, the “Fold of Basal” value (320 non-olfactory GPCRs [2]) is reported as 2.056 and 1.771 and 2.16 and 1.536 and the “Fold of Basal” value (320 non-olfactory GPCRs [3]) is reported as 0.9495 and 0.9531 and 1.111 and 0.8261. The “Fold of Basal” value (320 non-olfactory GPCRs [4]) was 0.6962 and 0.7878 and 0.5081 and 0.6515.
